pEC50: −log10 of the molar value.
Test: Inhibition of NS5B RNA dependent RNA polymerase in HCV 1b Con1 infected in human Huh5-2 cells assessed as reduction in viral RNA replication measured after 3 days by luciferase reporter gene assay

Row | pEC50 | SMILES
1 | 5.15 | COC[C@H]1C[C@@](CC(C)C)(C(=O)O)N(C(=O)c2ccc(C(C)(C)C)c(OC)c2)[C@H]1C(=O)OC
2 | 7.00 | COC[C@H]1C[C@@](CC(C)C)(C(=O)O)N(C(=O)c2ccc(C(C)(C)C)c(OC)c2)[C@H]1c1nccs1
3 | 4.22 | CCOC(=O)c1csc([C@H]2[C@@H](COC)C[C@@](CC(C)C)(C(=O)O)N2C(=O)c2ccc(C(C)(C)C)c(OC)c2)n1
4 | 5.70 | COC[C@H]1C[C@@](CC(C)C)(C(=O)O)N(C(=O)c2ccc(C(C)(C)C)c(OC)c2)[C@H]1[C@H]1COC(=O)O1
5 | 5.70 | COC[C@H]1C[C@@](CC(C)C)(C(=O)O)N(C(=O)c2ccc(C(C)(C)C)c(OC)c2)[C@H]1C(N)=O
6 | 4.40 | CC[C@H]1[C@@H](COC)C[C@@](CC(C)C)(C(=O)O)N1C(=O)c1ccc(C(C)(C)C)c(OC)c1
7 | 4.52 | COC[C@H]1C[C@@](CC(C)C)(C(=O)O)N(C(=O)c2ccc(C(C)(C)C)c(OC)c2)[C@H]1COC(C)=O
8 | 4.35 | COC[C@H]1C[C@@](CC(C)C)(C(=O)O)N(C(=O)c2ccc(C(C)(C)C)c(OC)c2)[C@H]1CF
9 | 4.82 | COC[C@H]1C[C@@](CC(C)C)(C(=O)O)N(C(=O)c2ccc(C(C)(C)C)c(OC)c2)[C@H]1CNC(C)=O
10 | 4.22 | COC[C@H]1C[C@@](CC(C)C)(C(=O)O)N(C(=O)c2ccc(C(C)(C)C)c(OC)c2)[C@H]1[C@H]1COC(C)(C)O1
11 | 4.82 | COC[C@H]1C[C@@](CC(C)C)(C(=O)O)N(C(=O)c2ccc(C(C)(C)C)c(OC)c2)[C@@H]1c1nccs1
12 | 6.22 | COC[C@H]1C[C@@](CC(C)C)(C(=O)O)N(C(=O)c2ccc(C(C)(C)C)c(OC)c2)[C@H]1COC
13 | 4.00 | COC[C@H]1C[C@@](CC(C)C)(C(=O)O)N(C(=O)c2ccc(C(C)(C)C)c(OC)c2)[C@H]1CN=[N+]=[N-]
14 | 5.12 | C=CCOC[C@H]1[C@@H](COC)C[C@@](CC(C)C)(C(=O)O)N1C(=O)c1ccc(C(C)(C)C)c(OC)c1
15 | 4.52 | COC[C@H]1C[C@@](CC(C)C)(C(=O)O)N(C(=O)c2ccc(C(C)(C)C)c(OC)c2)[C@H]1COC(=O)OC
